In US20240148722A1, “SMALL MOLECULES THAT BIND TO TDP-43 FOR THE TREATMENT OF ALS AND RELATED DISORDERS” (Biohaven Therapeutics Ltd., priority 2021, published 2024):

molecular target: T1, TDP-43 (Homo sapiens, UniProt Q13148); assay: not given; settings: using bt-(TG)6 and not bt-TAR32; Biochimie, 2012, 94, 1974-1981; cited from earlier work
T1 sequence (Q13148 whole entry): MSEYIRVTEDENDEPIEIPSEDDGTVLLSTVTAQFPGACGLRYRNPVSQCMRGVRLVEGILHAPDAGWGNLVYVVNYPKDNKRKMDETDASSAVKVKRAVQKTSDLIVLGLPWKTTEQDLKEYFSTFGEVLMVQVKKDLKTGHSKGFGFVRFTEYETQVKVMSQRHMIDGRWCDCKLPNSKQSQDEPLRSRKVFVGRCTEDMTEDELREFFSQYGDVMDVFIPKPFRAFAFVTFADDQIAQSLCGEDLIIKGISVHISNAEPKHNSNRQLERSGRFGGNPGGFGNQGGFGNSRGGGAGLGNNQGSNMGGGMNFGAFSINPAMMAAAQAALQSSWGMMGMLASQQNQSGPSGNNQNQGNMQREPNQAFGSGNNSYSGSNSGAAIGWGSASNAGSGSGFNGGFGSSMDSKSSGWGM

In the case of COc1ccc(-c2cc(NCCCN(C)C)c3ccccc3n2)cc1 [Compound I], the “activity in a TDP-43 alpha-screen” value is listed as “active”.

molecular target: T1, TDP-43; assay: not given; settings: cited from earlier work

In the case of COc1ccc(-c2cc(NCCCN(C)C)c3ccccc3n2)cc1 [Compound I], the “caspase-7 cleavage of TDP-43” value is given as “promoted”.

molecular target: TDP-43 1-260 (Homo sapiens, UniProt Q13148); assay: TDP-43 alpha-screen assay with bt-TAR32; assay type: binding; settings: bt-TAR32 0.125 nM; 3 h at room temperature; read-out: Activity (μM) in the TDP-43-DNA alpha-screen assay
Sequence (Q13148 1-260): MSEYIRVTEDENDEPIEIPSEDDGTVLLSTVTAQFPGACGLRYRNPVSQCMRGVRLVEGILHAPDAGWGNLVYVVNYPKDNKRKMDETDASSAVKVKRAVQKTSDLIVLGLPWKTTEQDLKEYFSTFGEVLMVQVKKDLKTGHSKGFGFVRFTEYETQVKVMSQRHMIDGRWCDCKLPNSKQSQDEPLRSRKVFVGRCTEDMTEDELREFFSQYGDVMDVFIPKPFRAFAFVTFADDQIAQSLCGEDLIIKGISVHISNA
Experimental: Alpha-screen assay. […] Briefly, assays contained TDP-43 1-260 (15 ng/mL, 0.27 nM), 10 mg/mL of both streptavidin donor beads and anti-GST acceptor beads with various concentrations of bt-TAR32 (˜18 to +14 in the HIV1 LTR) and test compound in a final volume of 20 mL of 25 mM Tris, 0.1% CHAPS, pH 7.4 in white, opaque low volume 384-well plates. After 3 h incubation at room temperature, the AlphaScreen signal was measured using a Synergy 2 plate reader (Biotek, Winooski, VT). […] Nonspecific binding was determined in the presence of 10 mM bt-TDP43 and was less than 10% of total binding. IC50 values were obtained from nonlinear regression fits of the data to a one-site binding model using Graph Pad Prism, version 5.0 (GraphPad Software, San Diego, CA). Comparison of competitive inhibition and mixed type inhibition models were evaluated using the F-test on global fits of the data also in Graph Pad Prism, version 5.0.

First: COc1ccc(-c2cc(NCCOCCN)cc(-c3ccc(N4CCNCC4)cc3)n2)cc1 [Example 73, N-(2-(2-aminoethoxy)ethyl)-2-(4-methoxyphenyl)-6-(4-(piperazin-1-yl)phenyl)pyridin-4-amine]
Second: COc1ccc(-c2cc(NC3CC4CCC(C3)N4C)cc(-c3ccc(N4CCN(C)CC4)cc3)n2)cc1 (stereo not drawn) [Example 58]
The IC50 of the first is 5.8-fold lower: 0.49 µM for the first, 2.85 µM for the second. The first is the more potent here.

First: COc1ccc(-c2cc(NCCCN(C)CCCN)cc(-c3ccc(CN4CCCC4)cc3)n2)cc1 [Example 24]
Second: COc1ccc(-c2cc(NCCCN(C)CCCN)cc(-c3ccc(OCCCN(C)C)nc3)n2)cc1 [Example 35, N-{3-[(3-aminopropyl)(methyl)amino]propyl}-6′-[3-(dimethylamino)propoxy]-6-(4-methoxyphenyl)-[2,3′-bipyridin]-4-amine]
The IC50 of the first is 1.7-fold lower: 0.09 µM for the first, 0.15 µM for the second.

First: COc1ccc(-c2cc(N[C@H]3C[C@H](N)C3)cc(-c3ccc(CN(C)CCN(C)C)o3)n2)cc1 [Example 96, N1-{2-[5-({[2-(dimethylamino)ethyl](methyl)amino}methyl)furan-2-yl]-6-(4-methoxyphenyl)pyridin-4-yl}cyclobutane-1,3-diamine]
Second: COc1ccc(-c2cc(NC3CCN(C4CCN(C)CC4)CC3)cc(-c3ccc(N4CCNCC4)cc3)n2)cc1 [Example 36]
The IC50 of the first is 16-fold higher: 2.4 µM for the first, 0.15 µM for the second. The second is the more potent here.

COc1ccc(-c2cc(NCC3CCN(C4CCNCC4)C3)cc(-c3ccc(N4CCN(C)CC4)cc3)n2)cc1 (stereo not drawn) [Example 22] and COc1ccc(-c2cc(NCCCN(C)CCCN)cc(-c3cnn(C4CCN(C)CC4)c3)n2)cc1 [Example 13, N-{3-[(3-aminopropyl)(methyl)amino]propyl}-2-(4-methoxyphenyl)-6-[1-(1-methylpiperidin-4-yl)-1H-pyrazol-4-yl]pyridin-4-amine] are within 1.5-fold of each other in IC50: 0.08 µM for the first, 0.065 µM for the second.

First: CN(CCCN)CCCNc1cc(-c2ccc(N3CCNCC3)cc2)nc(-c2ccc(N3CCNCC3)nc2)c1 [Example 4]
Second: COc1ccc(-c2cc(NCCCN(C)C)cc(-c3ccc(C[C@@H](N)C(=O)O)cc3)n2)cc1 [Example 62]
The IC50 of the first is 46-fold lower: 0.04 µM for the first, 1.85 µM for the second. The first is the more potent here.

Compared with COc1ccc(-c2cc(NCC3CN(C)CCO3)cc(-c3ccc(N4CCN(C)CC4)cc3)n2)cc1 (stereo not drawn) [Example 56], COc1ccc(-c2cc(NCCCN(C)CCCN)cc(OCCN3CCCC3)n2)cc1 [Example 37, N-{3-[(3-aminopropyl)(methyl)amino]propyl}-2-(4-methoxyphenyl)-6-[2-(pyrrolidin-1-yl)ethoxy]pyridin-4-amine] is 20-fold lower in IC50: 3.24 µM for the first, 0.16 µM for the second.

Going from COc1ccc(-c2cc(NCCCN(C)CCCN)cc(-c3ccc(N4CCN(C)CC4)cc3)n2)cc1 [Example 32] to COc1ccc(-c2cc(NCCCN(C)CCCN)cc(-c3ccc(N4CCN(CC5CNC5)CC4)cc3)n2)cc1 [Example 14], the IC50 falls from 0.13 µM to 0.07 µM (1.9-fold). The second is the more potent here.

First: COc1ccc(-c2cc(NCCCNC3CC(N)C3)cc(-c3ccc(N4CCNCC4)cc3)n2)cc1 (stereo not drawn) [Example 6]
Second: COc1ccc(-c2cc(N(C)CCCN(C)C)cc(-c3ccc(N4CCN(C)CC4)cc3)n2)cc1 [Example 42, N-(3-(dimethylamino)propyl)-2-(4-methoxyphenyl)-N-methyl-6-(4-(4-methylpiperazin-1-yl)phenyl)pyridin-4-amine]
The IC50 of the first is 12-fold lower: 0.04 µM for the first, 0.46 µM for the second.

First: COc1ccc(-c2cc(NC3CCNCC3(F)F)cc(-c3ccc(N4CCN(C)CC4)cc3)n2)cc1 (stereo not drawn) [Example 60]
Second: CN(CCCN)CCCNc1cc(-c2ccc(-c3ccncc3)cc2)nc(-c2ccc(N3CCNCC3)cc2)c1 [Example 77]
The IC50 of the first is 85-fold higher: 11 µM for the first, 0.13 µM for the second. The second is the more potent here.

First: COc1ccc(-c2cc(N[C@@H]3CCNC[C@@H]3OC)cc(-c3ccc(N4CCN(C)CC4)cc3)n2)cc1 [Example 75]
Second: COc1ccc(-c2cc(NCCCN(C)CCCN)cc(-c3ccc(CN4CCNCC4)cc3)n2)cc1 [Example 20]
The IC50 of the first is 4.5-fold higher: 0.36 µM for the first, 0.08 µM for the second. The second is the more potent here.

Compared with “Cis-N1-(2-(3-(2-(pyrrolidin-1-yl)ethoxy)phenyl)-6-(4-methoxyphenyl)pyridin-4-yl)cyclobutane-1,3-diamine [Example 94]”, COc1ccc(-c2cc(NC3(CCN)CC3)cc(-c3ccc(N4CCNCC4)cc3)n2)cc1 [Example 54] is 7.3-fold higher in IC50: 0.49 µM for the first, 3.56 µM for the second.

Going from COc1ccc(-c2cc(/N=N\C3CCNCC3)cc(-c3ccc(N4CCNCC4)cc3)n2)cc1 [Example 64] to COc1ccc(-c2cc(NCCCN3CCC(CN)CC3)cc(-c3ccc(N4CCNCC4)cc3)n2)cc1 [Example 18], the IC50 falls from 1.48 µM to 0.07 µM (21-fold). The second is the more potent here.

First: COc1ccc(-c2cc(NCC3CCN(CC4CCNC4)C3)cc(-c3ccc(N4CCN(C)CC4)cc3)n2)cc1 (stereo not drawn) [Example 21]
Second: N[C@H]1C[C@H](Nc2cc(-c3ccc(N4CCNCC4)cc3)nc3ccsc23)C1 [Example 85, (1r,3r)-N1-(5-(4-(piperazin-1-yl)phenyl)thieno[3,2-b]pyridin-7-yl)cyclobutane-1,3-diamine]
The IC50 of the first is 2-fold lower: 0.08 µM for the first, 0.16 µM for the second. The first is the more potent here.

Compared with CCOC(=O)N1CCC(Nc2cc(-c3ccc(OC)cc3)nc(-c3ccc(N4CCNCC4)cc3)c2)CC1 [Example 50], COc1cccc(-c2cc(NCCCN(C)CCCN)cc(-c3ccc(N4CCNCC4)cc3)n2)c1 [Example 51] is 15-fold lower in IC50: 9.49 µM for the first, 0.64 µM for the second. The second is the more potent here.

First: COc1ccc(-c2cc(NCCCN(C)C)cc(-c3cccc(OCCN4CCCC4)c3)n2)cc1 [Example 91]
Second: COc1ccc(-c2cc(NCCN3CCNCC3)cc(-c3ccc(N4CCNCC4)cc3)n2)cc1 [Example 74]
The IC50 of the first is 3.1-fold lower: 0.16 µM for the first, 0.49 µM for the second. The first is the more potent here.

Going from COc1ccc(-c2cc(NC3CCN(C4CCN(C)CC4)CC3)cc(-c3ccc(N4CCNCC4)cc3)n2)cc1 [Example 27, N-(2-(4-methoxyphenyl)-6-(4-(piperazin-1-yl)phenyl)pyridin-4-yl)-1′-methyl-[1,4′-bipiperidin]-4-amine] to COc1ccc(-c2cc(NCCCN(C)C)cc(-c3ccc(OCCCN(C)C)cc3)n2)cc1 [Example 80], the IC50 rises from 0.11 µM to 0.21 µM (1.9-fold).

Compared with COc1ccc(-c2cc(NCCCc3cnc[nH]3)cc(-c3ccc(N4CCN(C)CC4)cc3)n2)cc1 [Example 48], COc1ccc(-c2cc(NC3CCNCC3)cc(-c3ccc(N4CCNCC4)cc3)n2)cc1 [Example 39] is 20-fold lower in IC50: 3.77 µM for the first, 0.19 µM for the second. The second is the more potent here.

Work on COc1ccc(-c2cc(NC3CCN(C4CCC(N)CC4)CC3)cc(-c3ccc(N4CCNCC4)cc3)n2)cc1 (stereo not drawn) [Example 3] yielded an IC50 of 0.03 µM.

same assay, conditions: same alpha-screen assay using bt-TAR32, side-by-side, three independent assays; average

With COc1ccc(-c2cc(NC3CCN(C4CCC(N)CC4)CC3)cc(-c3ccc(N4CCNCC4)cc3)n2)cc1 (stereo not drawn) [Example 3] the “increase in potency versus Compound I (average)” value was 14 X.

same assay, conditions: same alpha-screen assay using bt-TAR32, side-by-side, three independent assays; range

For COc1ccc(-c2cc(NC3CCN(C4CCC(N)CC4)CC3)cc(-c3ccc(N4CCNCC4)cc3)n2)cc1 (stereo not drawn) [Example 3], the “increase in potency versus Compound I” value was 11-18 X.
